The source of these data is ChEMBL document CHEMBL4406877, “Synthesis of 2-arylhydrazinylidene-3-oxo-4,4,4-trifluorobutanoic acids as new selective carboxylesterase inhibitors and radical scavengers” (Bioorg Med Chem Lett, 2019).

pIC50, pKi: −log10 of the molar value. Active and inactive are the calls of the source. The calls are words filed in the database; no cut-off is given here.

The target of data set [1] is Acetylcholinesterase (Homo sapiens) (UniProt P22303). Description: Inhibition of human erythrocyte AChE at 20 uM using acetylthiocholine iodide as substrate preincubated for 10 mins followed by substrate addition by Ellman's method relative to control. (In general: Ellman's reagent forms a yellow product with free thiols.)
Sequence of Acetylcholinesterase (Homo sapiens) (P22303 whole entry): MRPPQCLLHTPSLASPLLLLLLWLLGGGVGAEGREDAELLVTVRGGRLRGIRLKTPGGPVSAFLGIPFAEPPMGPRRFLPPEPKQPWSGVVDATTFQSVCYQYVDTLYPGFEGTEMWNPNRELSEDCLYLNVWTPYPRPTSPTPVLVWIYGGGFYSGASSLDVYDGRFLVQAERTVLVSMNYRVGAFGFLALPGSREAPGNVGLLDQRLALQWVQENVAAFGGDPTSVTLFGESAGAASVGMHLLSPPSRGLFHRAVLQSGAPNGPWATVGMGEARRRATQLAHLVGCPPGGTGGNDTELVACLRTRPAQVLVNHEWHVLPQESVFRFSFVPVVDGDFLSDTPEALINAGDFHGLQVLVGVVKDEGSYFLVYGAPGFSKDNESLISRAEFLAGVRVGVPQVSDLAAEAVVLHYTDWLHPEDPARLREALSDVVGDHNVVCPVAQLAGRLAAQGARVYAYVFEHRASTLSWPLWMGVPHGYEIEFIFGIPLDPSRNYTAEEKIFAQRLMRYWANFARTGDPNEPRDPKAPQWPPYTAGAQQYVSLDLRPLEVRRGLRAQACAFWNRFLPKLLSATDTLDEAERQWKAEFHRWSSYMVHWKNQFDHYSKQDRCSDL
Data set [2] can be described thus: Potency index, ratio of trolox IC50 to test compound IC50 for antioxidant activity assessed as decrease in ABTS radical cation scavenging activity. Format: functional.
Data set [3] has as its target T1, Liver carboxylesterase (Sus scrofa, UniProt Q29550).
T1 sequence (Q29550 whole entry): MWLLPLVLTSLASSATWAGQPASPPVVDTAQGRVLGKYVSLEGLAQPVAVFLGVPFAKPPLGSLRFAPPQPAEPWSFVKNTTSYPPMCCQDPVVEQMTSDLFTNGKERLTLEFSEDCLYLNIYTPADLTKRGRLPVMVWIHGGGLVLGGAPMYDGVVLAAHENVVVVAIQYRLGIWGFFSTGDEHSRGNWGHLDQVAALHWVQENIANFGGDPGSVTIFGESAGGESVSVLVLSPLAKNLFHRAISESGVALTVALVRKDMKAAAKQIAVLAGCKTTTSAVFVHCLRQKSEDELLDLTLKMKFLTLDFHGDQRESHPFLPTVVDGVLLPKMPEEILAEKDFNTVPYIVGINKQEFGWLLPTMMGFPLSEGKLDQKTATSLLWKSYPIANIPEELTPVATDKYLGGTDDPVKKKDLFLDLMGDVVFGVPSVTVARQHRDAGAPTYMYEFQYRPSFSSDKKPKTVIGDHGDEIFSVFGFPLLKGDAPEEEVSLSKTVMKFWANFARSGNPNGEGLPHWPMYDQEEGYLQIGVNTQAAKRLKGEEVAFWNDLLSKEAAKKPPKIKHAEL
Description: Inhibition of porcine liver carboxylesterase using 4-NPA as substrate preincubated for 10 mins followed by substrate addition by spectrophotometric analysis.

The target in data set [4] is Cholinesterase (Equus caballus) (UniProt P81908). Description: Inhibition of equine serum BuChE at 20 uM using […] as substrate preincubated for 10 mins followed by substrate addition by Ellman's method relative to control.
Sequence of Cholinesterase (Equus caballus) (P81908 whole entry): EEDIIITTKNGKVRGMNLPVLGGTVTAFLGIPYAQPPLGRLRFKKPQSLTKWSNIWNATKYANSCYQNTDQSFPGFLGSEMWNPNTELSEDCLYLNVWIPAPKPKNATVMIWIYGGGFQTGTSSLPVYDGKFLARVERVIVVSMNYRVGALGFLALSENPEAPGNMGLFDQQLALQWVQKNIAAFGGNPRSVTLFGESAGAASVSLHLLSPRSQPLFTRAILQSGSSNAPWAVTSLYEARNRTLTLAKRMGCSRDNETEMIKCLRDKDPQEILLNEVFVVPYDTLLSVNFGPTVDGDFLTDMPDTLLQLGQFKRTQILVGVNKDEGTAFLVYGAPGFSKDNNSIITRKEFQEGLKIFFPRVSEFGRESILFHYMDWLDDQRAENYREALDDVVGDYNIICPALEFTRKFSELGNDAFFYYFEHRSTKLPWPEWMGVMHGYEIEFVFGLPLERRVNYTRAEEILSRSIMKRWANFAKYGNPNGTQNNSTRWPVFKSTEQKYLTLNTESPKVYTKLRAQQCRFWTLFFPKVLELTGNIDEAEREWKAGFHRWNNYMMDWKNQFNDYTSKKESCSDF
A short description of data set [5]: Antioxidant activity assessed as decrease in ABTS radical cation scavenging activity every 1 min for 6 mins by UV-Vis spectrophotometric analysis. The class given is functional.
Data set [6] has as its target T1, Liver carboxylesterase. In words: Competitive inhibition of porcine liver carboxylesterase by double reciprocal Lineweaver-Burk plot analysis.
The target of data set [7] is T1, Liver carboxylesterase. Description: Non-competitive inhibition of porcine liver carboxylesterase by double reciprocal Lineweaver-Burk plot analysis. Conditions: pig.
Data set [8] is described as follows: Potency index, ratio of ascorbic acid IC50 to test compound IC50 for antioxidant activity assessed as decrease in ABTS radical cation scavenging activity. The class given is functional.
Data set [9] is described as follows: Antioxidant activity assessed as decrease in ABTS radical cation scavenging activity after 1 min by UV-Vis spectrophotometric analysis relative to control. Further details: scale not given: the % may be the effect or the level left. The class given is functional.
Data set [10] concerns the target T1, Liver carboxylesterase. Description: Inhibition of porcine liver carboxylesterase at 20 uM using 4-NPA as substrate preincubated for 10 mins followed by substrate addition by spectrophotometric analysis relative to control. To be noted: pig.

For the molecule `CCOC(=O)c1ccccc1N/N=C(\C(=O)O)C(=O)C(F)(F)F`, the inhibition (in general, the share of the control response that was lost under treatment) in [1] worked out at 16.5%; in [4] it was 8.7%. For the same molecule, the Ratio IC50 in [2] amounted to 0.01. Besides, the pIC50 (commonly the IC50 on a negative log10 scale, so that one unit is a factor of ten) on Liver carboxylesterase [3] was 7.16.
Take `Cc1c(C)c2c(c(C)c1O)CCC(C)(C(=O)O)O2` (stereo not drawn) [TROLOX]: in data set [5], the pIC50 is 4.69.
Consider `Cc1ccc(N/N=C(\C(=O)O)C(=O)C(F)(F)F)cc1`, for which, on Liver carboxylesterase [6], the negative logarithm of the Ki (pKi) (in general, the Ki on a negative log10 scale, so that one unit is a factor of ten) was 6.47. At Liver carboxylesterase [7], this molecule showed an alphaKi of 1.11 µM. Besides, in data set [1], the inhibition entry is “inactive”. Moreover, the negative-log IC50 (pIC50) in data set [5] is 4.92; at Liver carboxylesterase [3], 6.20. For the same molecule, the Ratio IC50 in data set [2] amounted to 1.69; in data set [8] it was 2. This molecule also showed an inhibition in data set [4] of 18.1%.
Regarding `O=[N+]([O-])c1ccc(OP(=O)(O)Oc2ccc([N+](=O)[O-])cc2)cc1`, the inhibition result in data set [1] and in data set [4] was “inactive” each time.
With `COc1ccc(N/N=C(\C(=O)O)C(=O)C(F)(F)F)cc1`, in data set [9], the Activity is 75%. Besides, the inhibition entry in data set [1] was “inactive”. In addition, the pIC50 is 4.96 in data set [5] and 5.58 on Liver carboxylesterase [3]. Further, the Ratio IC50 came out at 1.9 in data set [2] and 2 in [8]. For the same molecule, the inhibition in [4] is 17.3%.
`O=C1O[C@H]([C@@H](O)CO)C(O)=C1O` [ASCORBIC ACID]: the pIC50 in data set [5] is 4.67. Also, the Ratio IC50 in data set [2] was determined as 0.98.
Take `COc1ccc(N/N=C(/C(C)=O)C(=O)O)cc1`: the inhibition result in data set [1] was “inactive”. In addition, the pIC50 in data set [5] was 5.01. The Ratio IC50 in [2] came to 1.9. At Liver carboxylesterase [10] (20 µM), the “inhibition (INH)” value was “Not Active”. In [4], this molecule returned an inhibition of 5.4%.
In the case of `CCOC(=O)c1ccc(N/N=C(\C(=O)O)C(=O)C(F)(F)F)cc1`, the results for the inhibition in data set [1] and in data set [4] were 8.1% and 3.4%, respectively. In addition, the negative logarithm of the IC50 (pIC50) in [5] was 4.02; against Liver carboxylesterase [3], 6.49. In addition, the Ratio IC50 in data set [2] amounted to 0.25.
In the case of `O=C(O)/C(=N\Nc1ccc([N+](=O)[O-])cc1)C(=O)C(F)(F)F`, the inhibition came to 6.1% in data set [1] and 17.3% in [4]. In addition, in data set [2], the Ratio IC50 was 0.05. This molecule gave a negative logarithm of the IC50 (pIC50) on Liver carboxylesterase [3] of 5.56.
As for `CC(=O)/C(=N/Nc1ccc(C)cc1)C(=O)O`, the inhibition entry in data set [1] and in data set [4] was “inactive” throughout. Also, the pIC50 in [5] is 4.89. Also, the Ratio IC50 in data set [2] is 1.65. The molecule further returned an inhibition at 20 µM at Liver carboxylesterase [10] (porcine liver carboxylesterase, probe 4-NPA) of 9.3%.
